According to patent US20110190492A1, “DIAGNOSTIC PROBE FOR CONFORMATION DISEASE” (TOHOKU UNIVERSITY, priority 2005, published 2011):
Read-outs that look alike come from different tables or passages of the source.

Key:
[1] = test system: histidine-requiring Salmonella typhimurium TA100 and TA98 strains; conditions: in the presence of S9mix; literature comparison compounds; cited from earlier work
[2] = target: T1, Tg mouse intracerebral amyloid plaque (amyloid β protein) (Homo sapiens, UniProt P05067); experiment: Tg mice with amyloid β deposition: intravenous administration, ex-vivo fluorescence microscopy of brain sections; assay type: in vivo, Tg mouse (Tg2576 or APPswe2576/Tau JPL3)
T1 construct: a Tg mouse (Tg2576) with amyloid β protein deposition; from tissue

amyloid β protein = target: T2, amyloid β protein (Homo sapiens, UniProt P05067); experiment: Staining test on a brain section of an Alzheimer disease patient (amyloid β protein); assay type: binding, human (Alzheimer disease patient); conditions: 100 μM compound in 50% ethanol, 10 minutes, fluorescence microscopy
T2 construct: from tissue; host or cells: paraffin-embedded human brain sections (temporal lobe, hippocampus) of Alzheimer disease patients
Description: (1) Brain specimens at the temporal lobe and the hippocampus of patients to which a definitive diagnosis of Alzheimer disease had been given, and those of normal senile persons were used. The specimens were given by our coworker, Fukushimura Hospital, Longevity Medicine Institute, and we were given their consent of use of the specimens for our study purpose by the bereaved of the patients (Fukushimura Hospital Ethical Review Board Approval No. 20).
(2) The paraffin-embedded brain tissue was cut into slices having a thickness of 6 μm or 8 μm, and extended and dried on a slide. The paraffin brain section was processed for paraffin removal in xylene twice for 10 minutes, 100% ethanol twice for 5 minutes, 90% ethanol for 5 minutes and running water for 10 minutes in that order.
(3) For pretreatment prior to the staining treatment with a compound of the invention, the sections were processed for autofluorescence removal with lipofuscin. First, the paraffin-removed sections were dipped in 0.25% KMnO4 solution for 20 minutes. These were washed with PBS, twice for 2 minutes, then dipped in 0.1% K2S2O5/oxalic acid solution for about 5 seconds, and then further washed with PBS, three times for 2 minutes.
(4) About 150 μl of a 100 μM solution of a compound of the invention dissolved in 50% ethanol was dropwise applied to the section and reacted for 10 minutes. After dipped five times in tap water, the section was entrapped with Fluor Save Reagent (Calbiochem), and analyzed through microscopy with a fluorescence microscope (Nikon, Eclipse 80i). The images were taken with a digital camera (Nikon Dxm 1200F or Photometrics' Cool SNAP ES).

[3] = Acute toxicity test, intravenous administration to mice; assay type: in vivo; conditions: mice observed for 7 days
Protocol: The compounds of the invention were tested for their acute toxicity through intravenous administration thereof to mice. Four Crj:CD1 male mice formed one test group, and some test groups of those mice were used (the mean body weight of the mice of each group was from 31 to 32 g). A test compound was dissolved in a mixture of 1 N HCl, polyethylene glycol-400 and distilled water, or dissolved in DMSO, and then diluted with distilled water. This was administered to each mouse via its tail vein.

[4] = test system: histidine-requiring Salmonella typhimurium TA100 and TA98 strains; experiment: Mutagenicity test (reverse mutation test); assay type: cell-based; conditions: for relative activity: irrespective of the absence or presence of S9mix
Protocol: In view of their use, it is desirable that the compounds of the invention have no mutagenicity or have little mutagenicity to a level causing no problem. For investigating the gene mutagenesis of the compounds of the invention, herein carried out was a reverse mutation test with histidine-requiring Salmonella typhimurium TA100 and TA98 strains. Two tests were carried out. One is a test for dose determination test; and the other is for mutagenicity.
The test methods and the mutagenicity of the compounds of the invention are mentioned below. In the dose determination test, six doses of 0.160, 0.800, 4.00, 20.0, 100 and 500 μg/plate (common ratio 5) were tried.
As a result of the dose determination test, when the mutagenicity of the test compound was admitted, then the actual test for mutagenicity was carried out, using the dose capable of giving an accurate dose-reaction curve. When no mutagenicity of the test compound was admitted in the dose determination test and when the growth inhibition of the test cells was admitted therein, then the dose to present the growth inhibition was taken as the maximum dose; and when the growth inhibition was not admitted, then a dose of 5000 μg/plate was taken as the maximum dose. With that, the actual test for mutagenicity was carried out on the level of 6 doses (common ratio 2).
First, a test compound was dissolved or suspended in DMSO, then diluted in order to prepare test compound liquids having a varying concentration.
100 μl of a test compound liquid or a negative control (DMSO) solution was put into a sterilized test tube. Then, for the case in the absence of a metabolic activation system (−S9mix), 500 μl of 0.1 mol/liter sodium-phosphate buffer (pH 7.4) was added to it; and for the case in the presence of a metabolic activation system (+S9mix), 500 μl of S9mix was added to it.
Next, 100 μl of the test strain suspension that had been cultivated with shaking at 37° C. for 8 hours was added to it, and preincubated in a shaking thermostat at 37° C. for 20 minutes. After shaken, 2 ml of top agar was added to it, and the contents were mixed.
Next, the mixture was poured onto a minimal glucose agar plate medium (plate) and spread uniformly thereon, then the top agar was solidified, and the plate was transferred into a thermostat and incubated at 37° C. for 48 hours.
Then, the number of the colonies grown through reverse mutation was counted.
For counting it, […]. After area correction and miss-counting correction, the number of the colonies was computed. When the colony analyzer could not be used owing to the deposition of the test compound or the cell growth inhibition, then the number of the colonies was counted with the naked eye.
In case where the number of the colonies through reverse mutation increased two times or more that of the negative control and where the dose dependency or the reproducibility of the increase was admitted, then the tested sample was decided as positive. When the sample was decided as positive, then the relative activity that indicates the relative comparative value of the intensity of the mutagenicity of the test compound was obtained according to the following formula:
Relative Activity={(number of colonies per plate having the concentration)−(number of colonies per negative control plate)}/the value of concentration (mg/plate).

T2 sequence (P05067 672-713 limits assumed): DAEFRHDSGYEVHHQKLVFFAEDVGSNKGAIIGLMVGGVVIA
T1 sequence (P05067 672-713 limits assumed): as above

| SMILES | relative activity [1] | binding to amyloid β protein in the brain section of an Alzheimer disease patient (amyloid β protein) | relative activity [4] | also measured |
| --- | --- | --- | --- | --- |
| CC(=C(C#N)C#N)c1ccc2cc(N(C)CCF)ccc2c1 [FDDNP] | extremely high | – | – | – |
| CN(C)c1ccc(-c2cn3cc(I)ccc3n2)cc1 [IMPY] | extremely high | – | – | – |
| OCC(CF)Oc1ccc2nc(/C=C/c3cnc(N4CCOCC4)s3)oc2c1 (centres unmarked) [THK-702, (E)-2-[2-(2-morpholinothiazol-5-yl)ethenyl]-6-[(1-fluoromethyl-2-hydroxy)ethoxy]-benzoxazole] | – | The white space arrow indicates amyloid β protein | minus | correspondence of binding site with anti-Aβ antibody-stained site of the same section ([2]; Tg2576 mouse, 4 mg/kg intravenous, antibody 4G8): completely corresponded to the anti-Aβ antibody-stained site of the same section; Maximum Permissible Dose [3]: ≧10 mg/kg |
| Cc1cc2nc(/C=C/c3ccc(N4CCOCC4)s3)sc2cc1C [THK-097, 5,6-dimethyl-2-[2-(5-morpholin-4-yl-thiophen-2-yl)vinyl]-benzothiazole] | – | bound to the amyloid β protein | minus | passage through the blood-brain barrier and binding to Tg mouse intracerebral amyloid plaque ([2]; intravenous administration via tail vein, brain fixed after 1 hour, fluorescence microscopy (THK-097 0.2 mg/kg; THK-525, THK-727, THK-702 4 mg/kg)): passed through the blood-brain barrier, and bound to the Tg mouse intracerebral amyloid plaque; Relative Activity in the absence of S9Mix ([4]; (colonies per plate − colonies per negative control plate)/concentration (mg/plate), in the absence of S9Mix as printed in head): minus; Relative Activity in the presence of S9Mix ([4]; (colonies per plate − colonies per negative control plate)/concentration (mg/plate), in the presence of S9Mix as printed in head): minus^1) |
